Data from US10023615B2, “Efficient transport into white blood cells” (priority 2008, dated 2018).
Square brackets hold non-standard residues; d marks the D form. Ends that are not written are not given here.

Assays:
[1] = test system: HepG2 hepatocarcinoma, HCT-116 tumoral colon; test: Uptake of FITC-labeled TAT derived transporter constructs in HepG2 and HCT-116; format: cell-based, human; conditions: 10 μM, 24 h
TC-3 cells = test: Inhibition of IL-1 induced pancreatic beta-cell death; format: cell-based; conditions: 1 μM single addition, IL-1 every two days, 15 days
Experimental: Inhibition of IL-1 induced pancreatic beta-cell death by the D-TAT-IB1(s) peptide was analyzed. TC-3 cells were incubated for 30 minutes with one single addition of the indicated peptides (1, μM), then IL-1 (10 ng/ml) was added.
Apoptotic cells were then counted after two days of incubation with IL-1 by use of Propidium Iodide and Hoechst 33342 nuclear staining. A minimum of 1,000 cells were counted for each experiment.
Long term inhibition of IL-1P induced cell-death by the D-TAT-IB1 peptide was also analyzed. TC-3 cells were incubated for 30 minutes with one single addition of the indicated peptides (1 μM), then IL-1 (10 ng/ml) was added, followed by addition of the cytokine every two days. Apoptotic cells were then counted after 15 days of incubation with IL-1 by use of propidium iodide and Hoechst 33342 nuclear staining. […] A minimum of 1.000 cells were counted for each experiment.

U937 cells = test: Intracellular concentration of transporter constructs subsequent to uptake into U937 cells; format: cell-based; conditions: for intracellular concentration of transporter construct subsequent to uptake: U937 cells, 10 μM construct
Experimental: 9. Determination of Intracellular Concentration of Specific Transporter Constructs Subsequent to Uptake (Internalization) of these Peptides into U937 Cells • According to a further experiment, the concentration of specific transporter constructs subsequent to uptake (internalization) of these peptides into U937 cells were determined.

Hela cells = test: Internalization of r3-L-TAT-derived transporters in Hela cells; format: cell-based; conditions: 2, 6 or 24 hours; 0, 500 nM, 1 mM or 10 mM
Text: The time dependant internalization (uptake) of FITC-labeled TAT derived transporter constructs into cells of the HL-60 cell line was furthermore carried out with materials and methods as described above using sequences of the 96-FITC-labeled D-TAT derivative transporters. These sequences are listed below.
• In the above table D amino acids are indicated by a small “d” prior to the respective amino acid residue (e.g. dR=D-Arg). • For a few sequences synthesis failed in the first approach unfortunately due to technical reasons. […] Hela cells were incubated 24 hours in 96 well plate with […] of the r3-L-TAT-derived transporters. Alternatively, human lymphoma cells are used. The cells were then washed twice with an acidic buffer (0.2M Glycin, 0.15M NaCl, pH 3.0) and twice with PBS. Cells were broken by the addition of RIPA lysis buffer. […] Briefly, Hela cells were incubated 2, 6 or 24 hours in 24 well plate with increasing dose of the r3-L-TAT-derivative transporters (0, 500 nM, 1 mM or 10 mM). The cells were then washed twice with an acidic buffer (0.2M Glycin, 0.15M NaCl, pH 3.0) and twice with PBS. Cells were broken by the addition of RIPA lysis buffer.

U937 lymphoma cells = test: Uptake (internalization) of FITC-labeled TAT derived transporter constructs in U937 cells, fluorescence plate reader; format: cell-based
Experimental: Cells were plated into poly-DL-lysine coated dishes at a concentration of 1×10^6 cells/ml. Plates were then incubated for 24 h at 37° C., 5% CO2, and 100% relative humidity prior to the addition of a known concentration of peptide. After peptide addition, the cells were incubated 30 min, 1, 6 or 24 h at 37° C., 5% CO2, and 100% relative humidity. Cells were then washed twice with an acidic buffer (Glycin 0.2 M, NaCl 0.15 M, pH 3.0) in order to remove the cell-surface adsorbed peptide (see Kameyama et al., (2007), Biopolymers, 88, 98-107). […] The cell wash using an acidic buffer was thus employed to remove the cell-surface adsorbed peptides. […] Cells were broken by the addition of the RIPA lysis buffer. The relative amount of internalized peptide was then determined by fluorescence after background substraction and protein content normalization. • The steps are thus: 1. […] Analysis of peptide internalization with a fluorescence plate reader • f) Cell Culture and Peptide Treatment • (1) The 6 well culture plates are coated with 3 ml of Poly-D-Lys (Sigma P9011; 25 μg/ml in PBS), the 24 well plates with 600 μl and the 96 well plates with 125 μl and incubated for 4 h at 37° C., CO2 5% and 100% relative humidity. • (2) After 4 hours the dishes were washed twice with 3.5 ml PBS, 700 μl or 150 μl PBS for the 6, 24 or 96 well plates, respectively. • (3) The cells were plated into the dishes in 2.4 ml medium (RPMI) at plating densities of 1′000′000 cells/ml for suspension cells. After inoculation, the plates were incubated at 37° C., 5% CO2 and 100% relative humidity for 24 hours prior to the addition of the peptide. Adherent cells should be at a density of 90-95% the day of treatment and were plated in DMEM :
• (4) The cells were treated with the desired concentration of FITC labeled peptide (stock solution at a concentration of 10 mM in H2O). • (5) Following peptide addition, the cells were incubated 0 to 24 hours (e.g. 30 min, 1, 6 or 24 hours) at 37° C., CO2 5% and 100% relative humidity. • Acidic Wash and Cellular Extracts: • (6) The extracts were cooled on ice. • Suspension cells (or cells, which don attach well to the dish): • Transfer the cells in ? […] To recover the maximum of cells, wash the dish with 1 ml of PBS. • Harvest the cells 2 min at 2400 rpm max. • Suspend the cells in 1 ml cold PBS. • Transfer the cells into a coated “Eppendorf tube” (coated with 1 ml of poly D-Lys for 4 hours and washed twice with 1 ml PBS). • Wash three times with 1 ml of cold acidic wash buffer and centrifuge 2 min at 2400 rpm max. Beware of the spreading of the cells in the “eppendorf”. • Wash twice with 1 ml cold PBS to neutralize. • Add 50 μl of lysis RIPA Buffer. • Incubate 30 min-1 h on ice with agitation. • Adherent Cells: • Wash three times with 3 ml, 1 ml or 200 μl (for 6, 24 or 96 well plates, respectively) of cold acidic wash buffer. Beware of the cells who detach from the dish. • Wash twice with 1 ml cold PBS (for 6, 24 or 96 well plates, respectively) to neutralize. • Add 50 μl of lysis RIPA buffer. • Incubate 30 min-1 h on ice with agitation. • Scrap the cells with a cold scrapper. The 24 and 96 well plates were directly centrifuged at 4000 rpm at 4° for 15 min to remove the cellular debris. Then the supernatants (100 or 50 ml respectively for the 24 or 96 well plates) were directly transferred in a dark 96 well plated.

[2] = test system: dissociated cortical primary neurons; test: Confocal microscopy of FITC-labeled TAT derivative transporters in cortical primary neurons; format: cell-based, rat; conditions: 500 nM, 24 hours
Experimental: 8.4 Internalization Experiments and Analysis • The time dependant internalization (uptake) of FITC-labeled TAT derived transporter constructs into cells of the HL-60 cell line was carried out with materials and methods as described above. • Briefly, HL-60 cells were incubated 30 min, 1, 6 or 24 hours with 10 μM of the TAT-derivative transporters. The cells were then washed twice with an acidic buffer (0.2 M Glycin, 0.15 M NaCl, pH 3.0) and twice with PBS. Cells were broken by the addition of RIPA lysis buffer. The relative amount of internalized peptide was then determined by reading the fluorescence intensity (Fusion Alpha plate reader; PerkinElmer) of each extract followed by background substraction and protein content normalization. […] The dissociated cortical primary neurons from P2 Sprague Dawley rats were cultured 12 days in neurobasal medium before exposure 24 hours to 500 nM of the FITC-labeled • TAT derivative transporters. The cells were washed five times with PBS on ice and then mounted in fluorsave mounting medium without prior fixation. Acquisitions were performed on LSM510 metaconfocal microscope (Zeiss). Images were processed with LSM510 software and mounted using Adobe photoshop. Visualization by confocal microscopy of labeling with 500 nM FITC-transporters (A: green). Nuclei were stained by Hoechst (B: blue).

[3] = Tissue distribution of C14 radiolabeled D-TAT-tagged peptides; format: in vivo, mouse; conditions: 1 mg/kg s.c., i.v., i.p.; 72 hours after injection
Experimental: Mice were treated via three different routes of administration (s.c., i.v., i.p.) with radiolabeled peptides with C^14 (1 mg/kg). Animals were sacrificed 72 hours after injection and processed for immunoradiography. […] This illustrates that the transporter D-TAT is responsible for the tissue distribution.

Monocytes (CD14) = test: Flow cytometry of FITC-transporter content in primary human white blood cells: monocytes; format: cell-based; conditions: 1 uM, 30 min
Text: (§1) Primary human white blood cells (WBC) were obtained from whole blood after red blood cell lysis. […] Cells containing D-TAT-FITC and r3-L-TAT-FITC were finally analysed by flow cytometry to measure their respective transporter content.

Neutrophils (CD15) = test: Flow cytometry of FITC-transporter content in primary human white blood cells: neutrophils; format: cell-based; conditions: 1 uM, 30 min
Text: as §1

Lymphocytes T (CD3) = test: Flow cytometry of FITC-transporter content in primary human white blood cells: lymphocytes T; format: cell-based; conditions: 1 uM, 30 min
Text: as §1

Lymphocytes B (CD19) = test: Flow cytometry of FITC-transporter content in primary human white blood cells: lymphocytes B; format: cell-based; conditions: 1 uM, 30 min
Text: as §1

## rrrRRRrrr [r6R3]
[1]
  uptake (internalization): most efficient

## L-TAT-IB1(s): SEQ ID NO: 234: L-IB1(s) linked to 10 amino acid L-TAT carrier via two proline residues (GRKKRRQRRRPPRPKRPTTLNLFPQVPRSQD; Description of sequence L-TAT-IB1 (s))
TC-3 cells
  long term protection against IL-1 induced cell-death: but not L-TAT-IB1(s), was able to confer long term (15 day) protection

## rYKRrQRRr ([dR]YKR[dR]QRR[dR]) [TAT(s2-91)]
U937 cells; 10 μM in medium
  accumulation in the cell (intracellular concentration): significantly higher than the concentration of the transporter construct in the medium
U937 cells; 2 h
  intracellular concentration of transporter construct subsequent to uptake: 3.16
U937 cells; 4 h
  intracellular concentration of transporter construct subsequent to uptake: 4.27
U937 cells; 6 h
  intracellular concentration of transporter construct subsequent to uptake: 4.68
U937 cells; 24 h
  intracellular concentration of transporter construct subsequent to uptake: 50
Hela cells
  transporter activity and kinetics of transport activity: highest transporter activity

## rrrqrrkkr [D-TAT]
U937 lymphoma cells; 10 μM, U937, Lymphoma, 24 h
  uptake (internalization): most efficient
U937 lymphoma cells; 500 nm over 24 hours in U937 cells
  HSPG dependency of uptake (internalization): HSPG-dependent
U937 cells; 2 h
  intracellular concentration of transporter construct subsequent to uptake: 2.00
U937 cells; 4 h
  intracellular concentration of transporter construct subsequent to uptake: 2.24
U937 cells; 6 h
  intracellular concentration of transporter construct subsequent to uptake: 3.55
U937 cells; 24 h
  intracellular concentration of transporter construct subsequent to uptake: 17.3
[2]
  internalization seen by confocal microscopy: internalized into the cytoplasm of the non stressed neurons
[1]
  uptake (internalization): most efficient
[3]
  tissue distribution (accumulation): in the liver, spleen, and bone marrow predominantly
Monocytes (CD14)
  binding to cell population: binds to monocytes, neutrophils and lymphocyte T cells
Neutrophils (CD15)
  binding to cell population: binds to monocytes, neutrophils and lymphocyte T cells
Lymphocytes T (CD3)
  binding to cell population: seeming to bind more efficiently to lymphocyte T than the r3-L-TAT
Lymphocytes T (CD3); listed as dTAT
  binding to cell population: binds to monocytes, neutrophils and lymphocyte T cells
Lymphocytes B (CD19)
  binding to cell population: less efficiently to lymphocyte B cells
